The values below are quoted from earlier work in publication PMC10352257, “In vivo effects of the alpha-synuclein misfolding inhibitor minzasolmin supports clinical development in Parkinson’s disease” (NPJ Parkinson's Disease, 2023).

In the data set the test system is Line 61 transgenic mice. More on the design: method as in PMID 28585223. The conditions noted are these: cited from earlier work.

Regarding CLR01, the “effect on gait deficits of Line 61 transgenic mice in round beam traversal test” value is reported as “improved”.
